Laboratory results as given in patent US20020103082A1, “Adjuvant activity through modulation of animal and plant cell membrane transport” (Board of Regents, The University of Texas System, priority 2000, published 2002).
Read-outs that look alike come from different tables or passages of the source.

Experiments:
[1] = system: yeast cells (YMR4 and INVSC, with or without AtPGP-1); type: cell-based, Saccharomyces cerevisiae; settings: 100 mM ATP, 48 hours
Method: To create drug resistant yeast strains, all four cell lines were grown up in the presence of 500 ng/ml of cycloheximide, and transferred to other cycloheximide containing plates after a period of four to six days. This transfer of cell lines and subculturing continued such that the yeast cells grew in the presence of cycloheximide for a period of at least a month.
Cells cultured in media alone: To create cell lines that had not been preselected for their ability to grow in drug, yeast strains were grown on plates containing YNB (Bio101, Vista, Calif.) without uracil (-URA) to maintain the presence of the vector (which supplies URA) without any drugs added.
Cells were transferred into 5 ml YNB -URA liquid media for turbidity measurements. All cell lines (both non-drug selected and drug-selected) were grown in media with the addition of either nothing, 500 ng/ml cycloheximide, 100 mM ATP, or 500 ng/ml cycloheximide and 100 mM ATP. Turbidity readings were taken after 48 hours.

[2] = system: Arabidopsis thaliana WS wild-type plants; experiment: Increasing plant sensitivity to herbicides (adjuvant test); type: in vivo; settings: surflan with compound of Formula II at 5 μg/ml versus surflan alone
Method: Arabidopsis thaliana WS wild-type plants were plated on germination media containing two commonly used herbicides, surflan and pendimethalin, in the presence and absence of an ecto-phosphatase inhibitor of Formula II and monitored for their growth in a 22° C. incubator under constant fluorescent illumination.
More specifically, germination media was prepared containing 20 μl/ml, 10 μl/ml, 2 μl/ml, 1 μl/ml, and 0.2 μl/ml of a surflan solution made at the manufacturer's recommended concentration. Compound of Formula II was added to a portion of the germination media at a final concentration of 5 μg/ml.
Arabidopsis thaliana WS wild-type seeds were surface sterilized in a 20% bleach solution for 20 minutes, washed three times in double distilled waster, and resuspended in 0.1% agarose solution. The seeds were then pipetted onto plates containing approximately 3 ml of germination media containing the various concentrations of surflan with and without compound of Formula II. All plates were placed in a 22° C. incubator under constant fluorescent illumination. Growth was assessed daily.

[3] = system: wild-type Arabidopsis thaliana plants; experiment: Arabidopsis germination selection assay; type: in vivo; settings: cycloheximide 500 ng/ml alone or phosphatase inhibitor 1 mM alone, after 10-20 days
Method: (§1) Arabidopsis seeds were sown in a solid germination media containing MS salts (Sigma Chemical, St. Louis, Mo.), 2% sucrose, 0.8% agar, and vitamins (Valvekens, D. et al., […], Proc. Natl. Acad. Sci. USA 85:5536-5540). For selection assays, one of the following, or a combination of both, was added to media (cooled to less than 50° C. before adding) immediately prior to pouring into plates: cycloheximide at a final concentration of 500 ng/ml; α,β-methyleneadenosine 5′-diphosphate at a final concentration of 1 mM. Plant growth was measured by germination percentage after 10-20 days. All other materials and methods were iscussed above in Example 2.

[4] = system: AtPGP-1 overexpressing (MDR OE) Arabidopsis thaliana plants; type: in vivo; settings: AtPGP-1 overexpressing plants; cycloheximide 500 ng/ml alone or phosphatase inhibitor 1 mM alone; after 10-20 days
Method: as §1

[5] = system: YMR4 yeast mutant deficient in two major extracellular phosphatases; experiment: Yeast drug selection growth assay; type: cell-based, Saccharomyces cerevisiae
Method: (§2) Yeast were grown at 30 C under conditions of constant selection for uracil auxotrophy. YNB (BiolOl, Vista, Calif.) supplemented with CSM (uracil dropout) and 2% glucose was used to grow strains having pVT101 constructs. Cycloheximide (Sigma Chemical, St. Louis, Mo.) was added to liquid media or spread on solid media to achieve a final concentration of 500 ng/ml. Nigericin (Sigma Chemical, St. Louis, Mo.) was added to liquid media or spread on solid media to achieve a final concentration of 25 μg/ml. Yeast strains used in cycloheximide selection assays were always propagated in the presence of the cycloheximide on plates and then streaked onto new plates containing drug or no drug, such that induced resistance existed in each strain at the time of the start of the assay. For selection assays on plates, single colonies were streaked; for selection in liquid media 0.01 ml of saturated culture was added to fresh media containing the drug. The plates shown in figures were grown for 3-5 days before photographs were taken. Yeast selection assays in liquid media were quantitated by turbidity as measured by absorbance at OD600.

[6] = system: wild-type yeast strain INVSC1; experiment: Yeast drug selection growth assay; type: cell-based, Saccharomyces cerevisiae; settings: cycloheximide 500 ng/ml
Method: as §2

[7] = system: acid phosphatase yeast mutant YMR4; experiment: Salvage pathway experiments in yeast (turbidity); type: cell-based, Saccharomyces cerevisiae; settings: added to media with cycloheximide; 72 hours
Method: All cell lines were grown in liquid media either containing drug (for the drug selected lines) or not containing drug (for the non-drug selected lines). When the cultures reached a turbidity of 1.00 as measured at a wavelength of 600 in a spectrophotometer (OD600=1.00), 10 μl of each culture was then removed and placed in either media with nothing added, 3 mM potassium phosphate; 3 mM adenosine; 9 mM potassium phosphate and 3 mM adenosine (for controls); potassium phosphate and cycloheximide; adenosine and cycloheximide; adenosine, cycloheximide, and potassium phosphate. Cell cultures were further grown for 72 hours, and their turbidity was determined by OD600 readings on a spectrophotometer. Growth of cell lines for nigericin experiments: Drug selected lines were removed from cycloheximide containing plates and placed in 5 ml liquid media containing 5 ng/ml cycloheximide. Cell cultures were allowed to grow until they reached an OD600 reading of 1.00, and then 10 μl from each culture was removed and transferred to culture tubes containing 5 ml of liquid media and 25 μg/ml nigericin. OD600 readings were recorded daily for a period of up to 72 hours to determine growth.

[8] = system: wild-type yeast strain INVSC with plasmid pvt101-U; experiment: Increasing yeast sensitivity to fungicide (filter disk zone of inhibition); type: cell-based, Saccharomyces cerevisiae; settings: 48 hours
Method: Additional experiment were performed to test the ability of ecto-phosphatase inhibitors to increase the effectiveness of the commonly used fungicide chlorothalonil. Yeast was plated on media with or without an ecto-phosphatase inhibitor of Formula X where a paper filter disk soaked in the fungicide was added to the plate. After 48 hours, the zone of inhibition of yeast growth around the filter disk was calculated.
The wild-type yeast strain INVSC with plasmid pvt101-U (for selection on media lacking uracil) was used in all experiments and each experiment was performed in triplicate. Media used was made by combining YNB (Bio 101, Vista, Calif.), the drop out supplement CSM-URA (Bio 101, Vista, Calif.), and glucose in water. […]
Twenty μl of an overnight saturated culture of yeast was plated onto each plate, spread, and allowed to dry for 20 minutes. […] The zone of inhibition of yeast growth around the disk was assessed after 48 hours.
Plates with chlorothalonil disks indeed contained a zone of inhibition surrounding the disk. […] The zone of inhibition was calculated by measuring the radius from the center of the disk to the point of noticeable yeast growth (at least 10 measurements per plate), averaging the radii measurements, and using the average radius of the plates to calculate the circular area of the zone of inhibition.

With `Nc1ncnc2c1ncn2[C@@H]1O[C@H](COP(=O)(O)OP(=O)(O)OP(=O)(O)O)[C@@H](O)[C@H]1O` [ATP] the “growth in high levels of ATP” value ([1]; cells not previously selected in drug) was “able to grow” and the “growth in high levels of ATP” value ([1]; cells previously grown in cycloheximide, not overexpressing AtPGP-1) was “not able to grow”.

With `Cc1cccc(NS(=O)(=O)c2ccc(-c3ccccc3)cc2)c1` [Formula II] the “surflan concentration at which it is an equally effective weed killer” value [2] was “five fold less concentration”.

With `C[C@@H]1C[C@@H]([C@H](O)CC2CC(=O)NC(=O)C2)C(=O)[C@@H](C)C1` [cycloheximide] the germination rate [3] was 2%, the germination rate [4] was 50% and the growth in drug ([5]; cycloheximide 500 ng/ml) was “did not grow”. The growth in drug [6] was “did grow”.

In the case of `Nc1ncnc2c1ncn2[C@@H]1O[C@H](CO)[C@@H](O)[C@H]1O` [adenosine], the “effect on growth of cells overexpressing AtPGP-1 in drug” value [7] is reported as “slightly inhibitory” and the “effect on resistance to cycloheximide” value [7] is reported as “did not enhance resistance”.

In the case of `CO[C@@H]1C[C@@H](C[C@H]2CC[C@H](C)[C@H]([C@@H](C)C(=O)O)O2)O[C@]2(O[C@](C)([C@H]3CC[C@@](C)([C@@H]4O[C@@H]([C@H]5O[C@@](O)(CO)[C@H](C)C[C@@H]5C)C[C@@H]4C)O3)C[C@H]2C)[C@@H]1C` [nigericin], the growth in drug ([5]; nigericin 25 μg/ml, YMR4 containing vector alone) is reported as “reduced growth”.

`Nc1ncnc2c1ncn2[C@@H]1O[C@H](COP(=O)(O)CP(=O)(O)O)[C@@H](O)[C@H]1O` [α,β-methyleneadenosine 5′-diphosphate] showed a germination rate [3] of 90% and a germination rate [4] of 83%.

For `N#Cc1c(Cl)c(Cl)c(Cl)c(C#N)c1Cl` [chlorothalonil], the area of inhibition ([8]; chlorothalonil by itself) was 0.35 in^2 and the “average radius of inhibition” value ([8]; chlorothalonil disk, plates without ecto-phosphatase inhibitor) was 0.33 in.

`O=P(O)(O)O` [phosphate, potassium phosphate] was tested, and the “effect on growth of cells overexpressing AtPGP-1 in drug” value [7] was “slightly inhibitory” and the “effect on resistance to cycloheximide” value [7] was “did not enhance resistance”.
